# Source: patent US20220395477A1, “COMPOSITIONS AND METHODS FOR PREVENTING AND TREATING RESPIRATORY SYNCYTIAL VIRUS INFECTION” (priority 2019, published 2022)
# System: RSV Line 19 (rA2-KL19F)
# Test: RFP (mKate2)-expressing RSV infection of A549 cells pretreated with SCFAs 24 hours before infection (RFP/DAPI)
# Assay type: cell-based, Human Respiratory Syncytial Virus
# Conditions: single SCFA 100 to 300 μM, 3 MOI, imaged after 48 hours
# Protocol: Images taken after 48 Hrs.
# Cells were infected at 3 MOI of RSV Line 19 (rA2-KL19F) expressing a red fluorescent marker, mKate2, as well as the F protein from the mucogenic clinical strain, and media was replaced with the appropriate SCFAs that was previously used in cultured. After 48 hours, the cells were stained with NucBlue (life technologies) and imaged using a Keyence fluorescence microscope (FIGS. 4A-4B).
row,Structure (SMILES),expression of RFP-MKate (RFP/DAPI)
1,CC(=O)O [acetate],reduces the expression of RFP-MKate
2,CCC(=O)O [propionate],reduces the expression of RFP-MKate
